# Patent publication US10900040B2, “Methods of reducing or preventing intimal damage caused by mechanical stimulation of endothelial cells” (University of Maryland, Baltimore, priority 2015, dated 2021)
# What was measured:
# TRPM4 = experiment: Reduction of TRPM4 expression by antisense oligodeoxynucleotides; type: in vivo; details: TRPM4-AS1 and TRPM4-AS2 used together; phosphorothioated
# Excerpt: (§1) In certain embodiments of the invention, antagonists of TRPM4 are employed in methods and/or compositions. Antagonists may be of any kind, but in particular embodiments the antagonists are proteins, nucleic acids, small molecules, and so forth. In specific cases, the TRPM4 antagonists comprise flufenamic acid and/or 9-phenanthrol and/or spermine and/or decavanadate and/or BTP2 and/or anti-TRPM4 antibodies. In specific cases, the TRPM4 nucleic acid antagonists comprises RNAi, such as siRNA or shRNA or antisense oligodeoxynucleotides (AS-ODN).
# spinal cord injury = experiment: Outcome from spinal cord injury after antisense oligodeoxynucleotides; type: in vivo; details: TRPM4-AS1 and TRPM4-AS2 used together; phosphorothioated
# Excerpt: as §1
# SUR1-TRPM4 channel = molecular target: T1, SUR1-TRPM4 channel (Homo sapiens, UniProt Q09428+Q8TD43); experiment: Patch clamp recordings of SUR1-TRPM4 channel currents in mechanically stimulated endothelial cells; type: cell-based; details: endothelial cells after mechanical stimulation; currents carried by Cs+ ions
# T1 construct: endogenous in cells
# Procedure: FIGS. 2A and 2B. Mechanical stimulation of endothelial cells causes upregulation of functional SUR1-TRPM4 channels. Endothelial cells were cultured in dishes with flexible bottoms and the cells were mechanically stimulated by applying puffs of air to the underside of the dishes. […] FIG. 2B: Amplitudes of SUR1-TRPM4 channel currents measured at −50 mV under control conditions before mechanical activation (CTR), following mechanical activation (STR), following mechanical activation in the presence of the NF-kappaB inhibitor, pyrrolidine dithiocarbamate (PDTC) as negative control, and without mechanical activation, in the presence of tumor necrosis factor alpha (TNFalpha), as positive control.
# Endothelial cells were cultured in dishes with flexible bottoms and the cells were mechanically stimulated by applying puffs of air to the underside of the dishes. […] NFκB activation caused robust transcriptional upregulation of the SUR1-TRPM4 channels 6 hours later (FIGS. 1B and 1C). […] The critical role of the mechanosensitive transcription factor, NF-κB, in Sur1-Trpm4 channel upregulation was confirmed using the NF-κB inhibitor, pyrrolidine dithiocarbamate (PDTC) as negative control, and the NF-κB activator, tumor necrosis factor α (TNFα), as positive control (FIG. 2B).
# T1 sequence (Q09428 whole entry): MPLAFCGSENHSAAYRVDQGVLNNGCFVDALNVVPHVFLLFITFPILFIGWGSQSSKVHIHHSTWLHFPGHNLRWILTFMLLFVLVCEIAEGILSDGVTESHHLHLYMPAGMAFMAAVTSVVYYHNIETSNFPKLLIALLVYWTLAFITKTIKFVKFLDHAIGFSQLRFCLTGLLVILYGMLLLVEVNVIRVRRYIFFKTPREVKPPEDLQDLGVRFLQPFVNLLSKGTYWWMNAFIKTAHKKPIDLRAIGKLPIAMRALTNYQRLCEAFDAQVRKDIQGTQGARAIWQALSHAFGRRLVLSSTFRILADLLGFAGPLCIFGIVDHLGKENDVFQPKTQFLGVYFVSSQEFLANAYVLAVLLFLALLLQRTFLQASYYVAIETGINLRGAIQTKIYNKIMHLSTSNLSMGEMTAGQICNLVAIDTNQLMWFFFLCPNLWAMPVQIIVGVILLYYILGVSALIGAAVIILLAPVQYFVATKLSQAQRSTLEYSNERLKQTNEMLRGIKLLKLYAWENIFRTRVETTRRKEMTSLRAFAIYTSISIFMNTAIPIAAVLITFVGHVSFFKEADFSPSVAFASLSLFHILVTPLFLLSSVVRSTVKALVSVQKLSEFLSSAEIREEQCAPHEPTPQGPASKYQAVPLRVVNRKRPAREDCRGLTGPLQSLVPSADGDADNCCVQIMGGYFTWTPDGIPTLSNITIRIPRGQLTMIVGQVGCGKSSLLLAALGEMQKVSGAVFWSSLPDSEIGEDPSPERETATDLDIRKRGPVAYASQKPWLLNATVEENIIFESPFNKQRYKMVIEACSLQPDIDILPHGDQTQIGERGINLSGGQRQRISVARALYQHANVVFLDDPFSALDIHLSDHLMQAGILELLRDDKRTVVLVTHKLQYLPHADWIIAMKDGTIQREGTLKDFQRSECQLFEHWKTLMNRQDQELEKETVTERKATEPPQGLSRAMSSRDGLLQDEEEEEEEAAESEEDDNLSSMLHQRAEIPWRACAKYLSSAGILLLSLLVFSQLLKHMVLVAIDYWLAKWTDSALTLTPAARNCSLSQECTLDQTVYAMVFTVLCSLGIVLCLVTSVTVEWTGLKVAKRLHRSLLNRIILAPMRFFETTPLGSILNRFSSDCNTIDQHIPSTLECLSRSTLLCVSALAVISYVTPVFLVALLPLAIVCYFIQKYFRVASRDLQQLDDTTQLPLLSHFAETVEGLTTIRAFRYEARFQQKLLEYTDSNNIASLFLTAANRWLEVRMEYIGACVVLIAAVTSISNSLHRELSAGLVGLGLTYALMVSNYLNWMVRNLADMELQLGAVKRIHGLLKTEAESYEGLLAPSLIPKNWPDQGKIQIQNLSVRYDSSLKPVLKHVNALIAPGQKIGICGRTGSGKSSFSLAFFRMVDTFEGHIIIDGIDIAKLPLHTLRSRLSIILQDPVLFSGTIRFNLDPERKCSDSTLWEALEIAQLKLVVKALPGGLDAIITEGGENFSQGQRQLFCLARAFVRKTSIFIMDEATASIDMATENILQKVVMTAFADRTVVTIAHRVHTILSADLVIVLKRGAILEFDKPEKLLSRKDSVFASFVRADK
# T1 sequence (Q8TD43 whole entry): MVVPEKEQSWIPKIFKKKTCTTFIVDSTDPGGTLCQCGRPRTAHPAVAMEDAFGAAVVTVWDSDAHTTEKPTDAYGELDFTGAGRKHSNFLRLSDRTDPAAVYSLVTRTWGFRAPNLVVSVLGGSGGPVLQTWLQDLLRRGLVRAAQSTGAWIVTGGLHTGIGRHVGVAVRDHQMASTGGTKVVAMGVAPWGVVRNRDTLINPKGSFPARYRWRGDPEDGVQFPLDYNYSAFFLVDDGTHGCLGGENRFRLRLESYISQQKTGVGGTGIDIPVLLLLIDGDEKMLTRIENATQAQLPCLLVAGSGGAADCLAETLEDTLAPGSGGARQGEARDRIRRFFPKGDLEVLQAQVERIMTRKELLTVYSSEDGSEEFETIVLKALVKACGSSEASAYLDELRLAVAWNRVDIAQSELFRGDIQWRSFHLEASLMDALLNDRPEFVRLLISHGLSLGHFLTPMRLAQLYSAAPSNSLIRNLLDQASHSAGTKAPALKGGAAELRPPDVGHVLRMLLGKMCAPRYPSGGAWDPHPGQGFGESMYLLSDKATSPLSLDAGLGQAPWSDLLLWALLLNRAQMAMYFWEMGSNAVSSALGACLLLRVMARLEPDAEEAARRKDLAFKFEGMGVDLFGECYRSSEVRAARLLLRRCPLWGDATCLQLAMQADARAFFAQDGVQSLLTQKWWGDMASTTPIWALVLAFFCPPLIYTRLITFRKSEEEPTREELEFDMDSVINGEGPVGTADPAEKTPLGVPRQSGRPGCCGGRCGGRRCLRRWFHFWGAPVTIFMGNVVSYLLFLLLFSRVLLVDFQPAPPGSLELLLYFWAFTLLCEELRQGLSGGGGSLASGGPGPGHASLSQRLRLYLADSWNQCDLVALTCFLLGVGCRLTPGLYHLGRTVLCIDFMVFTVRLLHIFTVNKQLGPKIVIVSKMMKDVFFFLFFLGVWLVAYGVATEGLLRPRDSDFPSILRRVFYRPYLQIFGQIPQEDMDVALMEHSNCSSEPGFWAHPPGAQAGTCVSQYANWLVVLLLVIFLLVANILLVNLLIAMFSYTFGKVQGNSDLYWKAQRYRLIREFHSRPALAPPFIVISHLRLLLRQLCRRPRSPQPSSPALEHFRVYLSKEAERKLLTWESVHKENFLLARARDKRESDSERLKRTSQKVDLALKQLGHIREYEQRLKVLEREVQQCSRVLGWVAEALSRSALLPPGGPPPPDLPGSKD
Compound,reducing TRPM4 expression (TRPM4),improving outcome from spinal cord injury (spinal cord injury),effect on SUR1-TRPM4 channel currents (patch clamp) (SUR1-TRPM4 channel)
"5′-CTGCGATAGCACTCGCCAAA-3′ (chemistry not given here) [TRPM4-AS2, antisense oligodeoxynucleotide against TRPM4]",highly effective,highly effective,–
"5′-GTGTGCATCGCTGTCCCACA-3′ (chemistry not given here) [TRPM4-AS1, antisense oligodeoxynucleotide against TRPM4]",highly effective,highly effective,–
CNC[C@H](O)[C@@H](O)[C@H](O)[C@H](O)CO [N-methyl-D-glucamine],–,–,channel blockade
